Measurements as given in patent publication US20200306185A1, “ANTIBACTERIAL COLLOID AND METHOD FOR MANUFACTURING THE SAME” (Kaohsiung Medical University, priority 2019, published 2020).

Tests used:
[1] = tested on: K. pneumoniae 700623; test: Synergistic bacteriostatic test (checkerboard test); format: cell-based, Klebsiella pneumoniae
Protocol: (§1) The synergistic bacteriostatic test is carried out by using the silver-containing antibacterial colloid (green mediated AgNP inhibitor) manufactured in the present embodiment and a bioactivator (using Gentamicin as an example). The fractional inhibitory concentration (FIC) index is used as a reference index for synergy. Synergy is the phenomenon in which two or more substances are mixed with each other, and the overall effect is greater than the advantage of each substance alone or less than the disadvantage of each substance alone. […] In the two-fold serial dilutions, the concentration of Gentamicin used for K. pneumoniae 700623 ranging from 1.25 μg·mL^−1 to 40 μg·mL^−1, and the concentration of Gentamicin used for K. pneumoniae BAA-1705 ranged from 5 μg·mL^−1 to 160 μg·mL^−1 The green mediated AgNP inhibitor extract extracted with TSB medium is used, and the above procedure is repeated to dilute the concentration of the green mediated AgNP inhibitor extract to 10 mg·mL^−1 50 μL of green mediated AgNP inhibitor is added longitudinally to the 96-well microplate in a two-fold serial dilution using MHB, followed by two-fold serial dilutions of six times at concentrations ranging from 0.31 mg·mL^−1 to 10 mg·mL^−1 Using 0.5 Mcfarland turbidity as the quantitative standard for bacterial solution (0.5 Mcfarland=10^8 CFU/mL). […]

[2] = tested on: K. pneumoniae BAA-1705; test: as above; format: cell-based, Klebsiella pneumoniae
Protocol: as §1

[3] = in combination with green mediated AgNP inhibitor

Substance: Gentamicin
- concentration of Gentamicin when used in combination (G-MIC-com) [1, 3]: 5 µg/mL
- MIC of Gentamicin when used alone (MICG) ([1]; used alone): 40 µg/mL
- concentration of Gentamicin when used in combination (G-MIC-com) [2, 3]: 10 µg/mL
- MIC of Gentamicin when used alone (MICG) ([2]; used alone): 40 µg/mL
